Where a SMILES comes first, the peptide text is derived from it. Bridges are numbered along the chain shown (N, C = ends). [ ]: non-standard residue; d: D form. The star is where a group is joined. ξ: configuration not given here. Phe(3-CF3) = N[C@@H](Cc1cccc(C(F)(F)F)c1)C(=O)O; Phe(4-CF3) = N[C@@H](Cc1ccc(C(F)(F)F)cc1)C(=O)O; Phe(4-COOH) = N[C@@H](Cc1ccc(C(=O)O)cc1)C(=O)O; Bip = N[C@@H](Cc1ccc(-c2ccccc2)cc1)C(=O)O; NH(CH2)14COOH = O=C(O)CCCCCCCCCCCCCCN*; Phe(3-Me) = Cc1cccc(C[C@H](N)C(=O)O)c1; Val(3-OH) = CC(C)(O)[C@H](N)C(=O)O; 4Pal = N[C@@H](Cc1ccncc1)C(=O)O; Cha = N[C@@H](CC1CCCCC1)C(=O)O; Cit = NC(=O)NCCC[C@H](N)C(=O)O; Ile(3ξ) = CCC(C)[C@H](N)C(=O)O; Thr(3ξ) = CC(O)[C@H](N)C(=O)O; 12Ado = NCCCCCCCCCCCC(=O)O; Carboxymethyl = O=C(O)C*; NMeA = CN[C@@H](C)C(=O)O; Orn = NCCC[C@H](N)C(=O)O; Aun = NCCCCCCCCCCC(=O)O; Dab = NCC[C@H](N)C(=O)O; AEEA = NCCOCCOCC(=O)O; Piv = CC(C)(C)C(=O)*
Each compound was assayed against T1, PD-1/PD-L1 interaction (PE-labeled human PD-L1-Ig binding to Jurkat cell line over-expressing human PD-1) (Homo sapiens, UniProt Q15116) (assay: Jurkat-PD-1 Cell Binding High-Content Screening Assay (CBA)). Conditions: Jurkat-hPD-1 cells, PE-labeled PD-L1-Ig 20 nM final; read-out: Jurkat HPD1 PDL1 IC50.
T1 construct: expressed in transfected cells; host or cells: Jurkat
Outline: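 Cells 8×10^3/well, DMEM + 10% FCS; cpd 2 h, 37 °C; PE–PD-L1-Ig 20 nM final, 1 h; PFA fix + Hoechst 33342, 3× dPBS wash; high-content imager.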

T1 sequence (Q15116 25-288): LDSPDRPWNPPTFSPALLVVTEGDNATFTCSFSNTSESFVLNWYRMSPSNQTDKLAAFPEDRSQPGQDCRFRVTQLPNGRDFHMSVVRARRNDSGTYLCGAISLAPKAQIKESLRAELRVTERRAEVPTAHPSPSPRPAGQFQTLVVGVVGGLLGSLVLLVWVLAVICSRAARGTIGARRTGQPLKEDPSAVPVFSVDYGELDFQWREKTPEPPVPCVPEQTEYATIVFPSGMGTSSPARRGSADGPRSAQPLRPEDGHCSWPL

`CCC(C)[C@@H]1NC(=O)[C@H](Cc2ccc(-c3ccccc3)cc2)NC(=O)[C@H](C(C)C)NC(=O)[C@H](Cc2c[nH]c3ccccc23)NC(=O)[C@H](CC(=O)O)NC(=O)[C@H](Cc2ccc(OCC(=O)O)cc2)NC(=O)[C@H](Cc2ccncc2)NC(=O)CSC[C@@H](C(=O)N[C@@H](CCCN)C(=O)NCCOCCOCC(=O)NCCCCCCCCCCC(=O)O)NC(=O)[C@H](C(C)O)NC(=O)[C@H](C(C)C)NC(=O)[C@H](CC2CCCCC2)NC(=O)[C@H](CCN)NC(=O)[C@@H](CC(C)C)NC(=O)[C@H](C)N(C)C1=O` (stereo partly drawn) [Example 2104] ({CH2CO}-[4Pal]Y(Carboxymethyl)DWV[Bip][Ile(3ξ)][NMeA][dL][Dab][Cha]V[Thr(3ξ)]C[Orn][AEEA][Aun]-OH; thioether N-14) and `CCC(C)[C@@H]1NC(=O)[C@H](Cc2ccc(-c3ccccc3)cc2)NC(=O)[C@H](C(C)C)NC(=O)[C@H](Cc2c[nH]c3ccccc23)NC(=O)[C@H](CC(=O)O)NC(=O)[C@H](Cc2ccc(OCC(=O)O)cc2)NC(=O)[C@H](C(C)O)NC(=O)CSC[C@@H](C(=O)N[C@H](CC(N)=O)C(=O)NCCCCCCCCCCC(=O)O)NC(=O)[C@H](CO)NC(=O)[C@H](C(C)C)NC(=O)[C@H](CC2CCCCC2)NC(=O)[C@H](CCN)NC(=O)[C@@H](CC(C)C)NC(=O)[C@H](C)N(C)C1=O` (stereo partly drawn) [Example 2209] ({CH2CO}-[Thr(3ξ)]Y(Carboxymethyl)DWV[Bip][Ile(3ξ)][NMeA][dL][Dab][Cha]VSC[dN][Aun]-OH; thioether N-14) are within 1.5-fold of each other in IC50: 0.0141 µM for the first, 0.0156 µM for the second.

First: CC(=O)NCCCC[C@@H]1NC(=O)[C@H](Cc2ccc(-c3ccccc3)cc2)NC(=O)[C@H](C(C)C)NC(=O)[C@H](Cc2cccc(C)c2)NC(=O)[C@H](CC(=O)O)NC(=O)[C@H](Cc2ccc(C(=O)O)cc2)NC(=O)[C@H](Cc2ccc(OCC(=O)O)cc2)NC(=O)CSC[C@@H](C(=O)NCCOCCOCC(=O)NCCCCCCCCCCC(=O)O)NC(=O)[C@H](C(C)O)NC(=O)[C@H](C(C)C)NC(=O)[C@H](CC2CCCCC2)NC(=O)[C@H](CCN)NC(=O)[C@@H](CC(C)C)NC(=O)[C@H](C)N(C)C1=O (stereo partly drawn) [Example 2283] ({CH2CO}-Y(Carboxymethyl)[Phe(4-COOH)]D[Phe(3-Me)]V[Bip]K(Ac)[NMeA][dL][Dab][Cha]V[Thr(3ξ)]C[AEEA][Aun]-OH; thioether N-14)
Second: Cc1cccc(C[C@@H]2NC(=O)[C@H](CC(=O)O)NC(=O)[C@H](Cc3ccc(OCC(=O)O)cc3)NC(=O)[C@H](C(C)O)NC(=O)CSC[C@@H](C(=O)N[C@H](CC(N)=O)C(=O)NCCCCCCCCCCC(=O)O)NC(=O)[C@H](C(C)O)NC(=O)[C@H](C(C)C)NC(=O)[C@H](CC3CCCCC3)NC(=O)[C@H](CCN)NC(=O)[C@@H](CC(C)C)NC(=O)[C@H](C)N(C)C(=O)[C@H](CCCCNC(=O)C(C)(C)C)NC(=O)[C@H](Cc3ccc(-c4ccccc4)cc3)NC(=O)[C@H](Cc3ccc(O)cc3)NC2=O)c1 (stereo partly drawn) [Example 2452] ({CH2CO}-[Thr(3ξ)]Y(Carboxymethyl)D[Phe(3-Me)]Y[Bip]K(Piv)[NMeA][dL][Dab][Cha]V[Thr(3ξ)]C[dN][Aun]-OH; thioether N-14)
The IC50 of the first is 1.7-fold higher: 0.0205 µM for the first, 0.0122 µM for the second. The second is the more potent here.

First: Cc1cccc(C[C@@H]2NC(=O)[C@H](CC(=O)O)NC(=O)[C@H](Cc3ccc(OCC(=O)O)cc3)NC(=O)[C@H](CCCNC(=N)N)NC(=O)CSC[C@@H](C(=O)N[C@@H](CCN)C(=O)NCCCCCCCCCCC(=O)O)NC(=O)[C@H](CCCCN)NC(=O)[C@H](C(C)C)NC(=O)[C@H](CC3CCCCC3)NC(=O)[C@H](CCN)NC(=O)[C@@H](CC(C)C)NC(=O)[C@H](C)N(C)C(=O)[C@H](CCCNC(N)=O)NC(=O)[C@H](Cc3ccc(-c4ccccc4)cc3)NC(=O)[C@H](C(C)C)NC2=O)c1 [Example 2212] ({CH2CO}-RY(Carboxymethyl)D[Phe(3-Me)]V[Bip][Cit][NMeA][dL][Dab][Cha]VKC[Dab][Aun]-OH; thioether N-14)
Second: CCC(C)[C@@H]1NC(=O)[C@H](Cc2ccc(-c3ccccc3)cc2)NC(=O)[C@H](CC(C)C)NC(=O)[C@H](Cc2c[nH]c3ccccc23)NC(=O)[C@H](CC(=O)O)NC(=O)[C@H](Cc2ccc(O)cc2)NC(=O)[C@H](CC(N)=O)NC(=O)CSC[C@@H](C(=O)N[C@H](CC(N)=O)C(=O)NCCOCCOCC(=O)NCCCCCCCCCCC(=O)O)NC(=O)[C@H](CO)NC(=O)[C@H](C(C)C)NC(=O)[C@H](CC(C)C)NC(=O)[C@H](CCN)NC(=O)[C@@H](CC(C)C)NC(=O)[C@H](C)N(C)C1=O (stereo partly drawn) [Example 2063] ({CH2CO}-NYDWL[Bip][Ile(3ξ)][NMeA][dL][Dab]LVSC[dN][AEEA][Aun]-OH; thioether N-14)
The IC50 of the first is 4-fold lower: 0.0161 µM for the first, 0.065 µM for the second.

Same assay, conditions: PE-labeled PD-L1-Ig 20 nM final, Jurkat-hPD-1 cells; read-out: Jurkat HPD1 PDL1 IC50

`CC(=O)NCCCC[C@@H]1NC(=O)[C@H](C(C)(C)O)NC(=O)[C@H](CC2CCCCC2)NC(=O)[C@H](CCN)NC(=O)[C@@H](CC(C)C)NC(=O)[C@H](C)N(C)C(=O)[C@H](CCC(N)=O)NC(=O)[C@H](Cc2ccc(-c3ccccc3)cc2)NC(=O)[C@H](Cc2ccc(C(=O)O)cc2)NC(=O)[C@H](Cc2cccc(C(F)(F)F)c2)NC(=O)[C@H](CC(=O)O)NC(=O)[C@H](Cc2ccc(OCC(=O)O)cc2)NC(=O)[C@H](Cc2ccc(OCC(=O)O)cc2)NC(=O)CSC[C@@H](C(=O)N[C@@H](CCN)C(=O)NCCOCCOCC(=O)NCCOCCOCC(=O)NCCCCCCCCCCCCCCC(=O)O)NC1=O` [Example 2608] ({CH2CO}-Y(Carboxymethyl)Y(Carboxymethyl)D[Phe(3-CF3)][Phe(4-COOH)][Bip]Q[NMeA][dL][Dab][Cha][Val(3-OH)]K(Ac)C[Dab][AEEA][AEEA]-{NH(CH2)14COOH}; thioether N-14) and `CCC(C)[C@@H]1NC(=O)[C@H](Cc2ccc(-c3ccccc3)cc2)NC(=O)[C@H](Cc2ccc(C(F)(F)F)cc2)NC(=O)[C@H](Cc2c[nH]c3ccccc23)NC(=O)[C@H](CC(=O)O)NC(=O)[C@H](Cc2ccc(OCC(=O)O)cc2)NC(=O)[C@H](Cc2cnc[nH]2)NC(=O)CSC[C@@H](C(=O)N[C@@H](CCN)C(=O)NCCOCCOCC(=O)NCCCCCCCCCCC(=O)O)NC(=O)[C@H](CCC(=O)O)NC(=O)[C@H](C(C)(C)O)NC(=O)[C@H](CC2CCCCC2)NC(=O)[C@H](CCN)NC(=O)[C@@H](CC(C)C)NC(=O)[C@H](C)N(C)C1=O` (stereo partly drawn) [Example 2590] ({CH2CO}-HY(Carboxymethyl)DW[Phe(4-CF3)][Bip][Ile(3ξ)][NMeA][dL][Dab][Cha][Val(3-OH)]EC[Dab][AEEA][Aun]-OH; thioether N-14) are within 1.5-fold of each other in IC50: 0.168 µM for the first, 0.185 µM for the second.

In the case of `Cc1cccc(C[C@@H]2NC(=O)[C@H](CC(=O)O)NC(=O)[C@H](Cc3ccc(OCC(=O)O)cc3)NC(=O)[C@H]([C@@H](C)O)NC(=O)CSC[C@@H](C(=O)N[C@@H](CCC(=O)O)C(=O)NCCOCCOCC(=O)NCCCCCCCCCCCC(=O)O)NC(=O)CNC(=O)[C@H](C(C)C)NC(=O)[C@H](CC3CCCCC3)NC(=O)[C@@H](CCC(=O)O)NC(=O)[C@@H](CC(C)C)NC(=O)[C@H](C)N(C)C(=O)[C@H](Cc3ccc(OCC(=O)O)cc3)NC(=O)[C@H](Cc3ccc(-c4ccccc4)cc3)NC(=O)[C@H](Cc3ccc(OCC(=O)O)cc3)NC2=O)c1` [Example 2686] ({CH2CO}-TY(Carboxymethyl)D[Phe(3-Me)]Y(Carboxymethyl)[Bip]Y(Carboxymethyl)[NMeA][dL][dE][Cha]VGCE[AEEA][12Ado]-OH; thioether N-14), the IC50 is reported as 0.257 µM.

— patent US20260070945A1, “MACROCYCLIC IMMUNOMODULATORS” (Bristol-Myers Squibb Company, priority 2022, published 2026)
